Consider six compounds from US4770996A, “Identification of individuals predisposed toward alcohol abuse” (priority 1986, dated 1988).

The test system of assay [1] is platelet adenylate cyclase. Nature of the assay: Platelet membrane adenylate cyclase (AC) assay, 32P-ATP to 32P-cAMP. The conditions noted are these: for Adenylate Cyclase Activity - CsF-Stimulated / Adenylate Cyclase Activity - CsF-Stimulated, Mean ± SD / Enzyme Activity +CsF: CsF 10 mM; for Enzyme Activity +Gpp(NH)p / Enzyme Activity +PGE1 (1 uM): mean ± SD; for Enzyme Activity +Gpp(NH)p: Gpp(NH)p 10 uM. The assay is classed as biochemical, human. Also noted: Adenylate Cyclase Activity - CsF-Stimulated / Adenylate Cyclase Activity - CsF-Stimulated, Mean ± SD: unit not given here. The method, then: Platelets were prepared from whole blood (20 ml) which was obtained by venipuncture from healthy volunteers and alcoholic subjects. After standing at room temperature for approximately three to four hours in citrate-phosphate-dextrose solution, each blood sample was centrifuged at 180×G for two minutes. […] The PRP was centrifuged at 16,000 g for ten minutes. The pellet was resuspended in 50 ml of cold 50 mM Tris-HCl, pH 7.5, containing […] NaCl and 20 mM ethylene diamine tetraacetic acid (EDTA). The centrifugation was repeated twice, and the final pellet was resuspended in 1 ml of cold 5 mM Tris-HCl, pH 7.5, containing 5 mM EDTA. Suspensions were rapidly frozen at -70° C., and samples were stored at -70° C. for no longer than four weeks prior to assay. AC activity was assayed by a modification of previously described methods, Hoffman and Tabakoff, J. Pharmacol. Exptl. […] Platelets were thawed at room temperature, aliquots of platelets were diluted to 4 ml with 5 mM Tris-HCl buffer containing 5 mM EDTA, and the suspension was centrifuged at 39,000×G for ten minutes at 4° C. […] The reaction was stopped by placing the tubes in a boiling water bath for three minutes. […] The ^32 p-cAMP was isolated by sequential chromatography on Dowex (Sigma Chemical Co., St. Louis, Mo.) and alumina columns (Sigma Chemical Co., St. Louis, Mo.), Salomon et. al., Anal. […] To each column effluent, 10 ml of scintilation cocktail was added, and ^32 p-cAMP was quantitated in a liquid scintillation spectrometer. All values were corrected for percentage recovery of the product (^32 p-cAMP).

The subject of assay [2] is platelet adenylate cyclase. The conditions noted are these: Jakobs et al., J. Recep. Res. 4:443-458, 1984; cited from earlier work.
The target in assay [3] is T1, platelet monoamine oxidase (MAO) (Homo sapiens, UniProt P27338).
T1 construct: contained approximately 15 ug of platelet protein; from tissue; host or cells: platelets (membranes) from whole blood of volunteers and alcoholic subjects
T1 sequence (P27338 1-520): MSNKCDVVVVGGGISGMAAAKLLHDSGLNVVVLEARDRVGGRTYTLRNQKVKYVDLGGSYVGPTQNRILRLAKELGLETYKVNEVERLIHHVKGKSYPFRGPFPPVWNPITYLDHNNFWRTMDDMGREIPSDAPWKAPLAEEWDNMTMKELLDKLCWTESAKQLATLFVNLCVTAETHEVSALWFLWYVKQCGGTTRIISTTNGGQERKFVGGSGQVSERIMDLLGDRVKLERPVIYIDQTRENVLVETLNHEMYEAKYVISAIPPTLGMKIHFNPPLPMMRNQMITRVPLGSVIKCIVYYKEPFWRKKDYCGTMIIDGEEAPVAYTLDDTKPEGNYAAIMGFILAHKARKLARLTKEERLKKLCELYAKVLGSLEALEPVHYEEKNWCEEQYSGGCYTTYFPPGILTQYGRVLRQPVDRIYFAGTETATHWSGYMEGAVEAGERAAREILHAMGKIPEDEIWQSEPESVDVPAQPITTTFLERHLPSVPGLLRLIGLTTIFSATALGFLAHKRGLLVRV
Description: Platelet monoamine oxidase (MAO) assay, deamination of 14C-PEA. It is filed as biochemical. The conditions noted are these: for Percent Inhibition by 400 mM Ethyl Alcohol / Percent Inhibition by 400 mM Ethyl Alcohol, Mean ± SD / Percent Inhibition by 400 mM ETOH: 12 uM PEA; for Percent Inhibition by 400 mM ETOH: mean ± SD. The method, then:
Platelets were prepared from whole blood (20 ml) which was obtained by venipuncture from healthy volunteers and alcoholic subjects. After standing at room temperature for approximately three to four hours in citrate-phosphate-dextrose solution, each blood sample was centrifuged at 180×G for two minutes. The platelet-rich plasma (PRP) was carefully removed and platelet count was determined from aliquots (20 ul) of the PRP with a Coulter S-plus Thrombocounter. The PRP was centrifuged at 16,000 g for ten minutes. The pellet was resuspended in 50 ml of cold 50 mM Tris-HCl, pH 7.5, containing […] NaCl and 20 mM ethylene diamine tetraacetic acid (EDTA). The centrifugation was repeated twice, and the final pellet was resuspended in 1 ml of cold 5 mM Tris-HCl, pH 7.5, containing 5 mM EDTA. Suspensions were rapidly frozen at -70° C., and samples were stored at -70° C. for no longer than four weeks prior to assay.
To measure the deamination of ^14 C-PEA, assay mixtures (total volume, 0.3 ml) contained approximately 15 ug of platelet protein. Reactions were carried out in 0.1 M sodium phosphate, pH 7.4, at 37° C. A five-minute preincubation period preceded the addition of substrate, and blanks were preincubated in the presence of 1×10^-3 M pargyline. Appropriate concentrations of ^14 C-PEA (10,000 dpm per nmole) were added to initiate the reaction, and the incubation was carried out for 15 minutes. The reaction was stopped by placing the tubes in an ice bath and adding 1.0 ml of ice-cold unlabeled PEA solution (10^-4 M) to each assay tube. A 1-ml aliquot was then removed from each tube and placed on an Amberlite™ ion exchange column, Tabakoff et. al., Psychopharmacol. 87:152 (1985). The columns were washed with two 1-ml portions of distilled water and the effluent was collected in scintillation vials. Two additional ml of water and 20 ml of scintillation fluid were added to each vial, and radioactivity was determined in a liquid scintillation spectrometer. To study the effects of ethanol or other alcohols on MAO activity, the alcohols were added to incubation mixtures five minutes prior to the addition of substrate.

`[Cs+].[F-]` [CsF, cesium fluoride]: the “Adenylate Cyclase Activity - CsF-Stimulated” value in assay [1] (control subject No. 5, Sample 1) came to 83.6; in assay [1] (control subject No. 5, Sample 2 (one week interval)), 69.5; in assay [1] (control subject No. 5, Sample 3 (one week interval)) it was 72.3; in assay [1] (control subject No. 6, Sample 1), 104.2; in assay [1] (control subject No. 6, Sample 2 (one week interval)) it was 98.0; in assay [1] (control subject No. 6, Sample 3 (one week interval)), 100.2. For the same compound, the “Adenylate Cyclase Activity - CsF-Stimulated, Mean ± SD” value is 75.1 ± 7.5 in assay [1] (control subject No. 5, mean of 3 samples) and 100.8 ± 3.1 in assay [1] (control subject No. 6, mean of 3 samples). The “Enzyme Activity +CsF” value is 78.2 pmole cAMP/mg protein/minute in assay [1] (platelets of Alcoholics, mean (SD 27.8), n=107, significant vs control); 97.9 pmole cAMP/mg protein/minute in assay [1] (platelets of Controls, mean (SD 28.7), n=49); 70.6 pmole cAMP/mg protein/minute in assay [1] (platelets of Recovering Alcoholics, mean (SD 27.2), n=38, significant vs control).
For the compound `Nc1nc2c(ncn2[C@@H]2O[C@H](COP(=O)(O)OP(=O)(O)NP(=O)(O)O)[C@@H](O)[C@H]2O)c(=O)[nH]1` [Gpp(NH)p, guanylylimidodiphosphate], the “Enzyme Activity +Gpp(NH)p” value in assay [1] (platelets of Alcoholics, n=43, significant vs control) was 37.8 ± 14.4 pmole cAMP/mg protein/minute; in assay [1] (platelets of Controls, n=36), 50.4 ± 15.0 pmole cAMP/mg protein/minute; in assay [1] (platelets of Recovering Alcoholics, n=23, significant vs control) it was 37.2 ± 16.5 pmole cAMP/mg protein/minute.
In general, Km refers to the substrate concentration at which the rate is half of its maximum. Turning to `Nc1ncnc2c1ncn2[C@@H]1O[C@H](COP(=O)(O)OP(=O)(O)OP(=O)(O)O)[C@@H](O)[C@H]1O` [Mg-adenosine triphosphate], the “maximal activity (Vmax) of adenylate cyclase” value in assay [1] (platelets of control subjects, 10 mM Mg++, varying ATP, mean±SD, n=3) is given as 15.1±2.4 pmole cAMP produced/min/mg pro. Besides, the Km in assay [1] (platelets of control subjects, 10 mM Mg++, varying ATP, mean±SEM, n=3, read-out: Km of adenylate cyclase for Mg-adenosine triphosphate (ATP)) worked out at 20.1 ± 3.8 µM.
With `[Na+]` [Na^+], the “effect of sodium ion on stimulation of platelet AC activity” value in assay [2] is “inhibits stimulation of platelet AC activity”.
Turning to `CCCCC[C@H](O)/C=C/[C@H]1[C@H](O)CC(=O)[C@@H]1CCCCCCC(=O)O` [PGE1, prostaglandin E1], the “Enzyme Activity +PGE1 (1 uM)” value is 84.4 ± 36.1 pmole cAMP/mg protein/minute in assay [1] (platelets of Alcoholics, n=34, significant vs control); 115.5 ± 32.9 pmole cAMP/mg protein/minute in assay [1] (platelets of Controls, n=21); 42.7 ± 12.8 pmole cAMP/mg protein/minute in assay [1] (platelets of Recovering Alcoholics, n=8, significant vs control and vs alcoholics).
In the case of `CCO` [ethyl alcohol], the “nature of MAO inhibition by ethyl alcohol added in vitro” value in assay [3] (in vitro, amount of inhibition depended on substrate concentration) was “reversible and was "competitive" in nature”. Also, the “Percent Inhibition by 400 mM Ethyl Alcohol” value turned out to be 7.0% in assay [3] (patient No. 1, Sample 1 (baseline)); 7.6% in assay [3] (patient No. 1, Sample 2 (five days later)); 6.1% in assay [3] (patient No. 1, Sample 3 (six days later)); 13.1% in assay [3] (patient No. 2, Sample 1 (baseline)); 7.9% in assay [3] (patient No. 2, Sample 2 (five days later)); 9.8% in assay [3] (patient No. 2, Sample 3 (six days later)). Moreover, the “Percent Inhibition by 400 mM Ethyl Alcohol, Mean ± SD” value is given as 6.9 ± 0.8% in assay [3] (patient No. 1, mean of 3 samples) and 10.3 ± 2.6% in assay [3] (patient No. 2, mean of 3 samples). Moreover, the “Percent Inhibition by 400 mM ETOH” value in assay [3] (platelets of Alcoholics, n=54, P < 0.01 vs control) was determined as 12.6 ± 7.0%; in assay [3] (platelets of Controls, n=28) it was 7.5 ± 6.9%; in assay [3] (platelets of Recovering Alcoholics, n=22, P < 0.05 vs control), 11.4 ± 6.2%.
